{"source": "patent EP1179349B1", "about": "“W/O emulsion adjuvant compositions for vaccines” (Lohmann Animal Health GmbH & Co. KG, priority 2000, dated 2002)", "origin": "cited, not measured here", "conditions": "manufacturer's data", "data": [{"molecule": "CCCCCCCCCCCCCC(=O)OC(C)C", "note": "[Isopropylmyristat]", "values": [{"measurement": "Toxizität", "result": "Keine toxische Wirkung nachweisbar."}]}]}
